Assay: Oral bioavailability of BrEA formulations in rats
Type: in vivo
Method: In vivo experiments were conducted to determine the bioavailability of BrEA via oral administration using different formulations. BrEA was (1) solubilized in soya oil, vitamin E oil, a mixture of vitamin E and cremophore or (2) BrEA was micronized and combined with or without a surfactant. These formulations are described below. The formulations were administered orally to rats and BrEA levels were determined in the blood, liver, spleen, kidney, and the lymph nodes. In the studies using micronized BrEA, the brain was evaluated for drug uptake. Twenty-four hour urine and feces were collected when BrEA was solubilized in vitamin E and soya oils and vitamin E mixed with Cremophore. The data from these studies indicate that BrEA enters into the lymphatics but is eliminated rapidly from the other tissues. The amount of ^14C radioactivity recovered in the feces 24 hours after administration was 78 to 83%.
BrEA (5 mg in 1.0 mL of soya oil or vitamin E oil) supplemented with ^14C-labelled BrEA was administered intragastrically to rats. Solubilization of BrEA in the vitamin E or soya oil was facilitated with 50 μL ethanol. Animals (3/time point) were assayed at 1.5, 3, 5.5, and 24 hours after administration and the ^14C-radioactivity was measured in the blood, liver, spleen, kidney, lymph nodes and 24 hour feces and urine. […] The uptake is greater with soya oil than vitamin E oil in the blood, liver, and lymph nodes.
BrEA (5 mg in 1.0 mL of a vitamin E and cremophore) supplemented with ^14C-labelled BrEA was administered intragastrically to rats. Solubilization of BrEA in the vitamin E-cremophore mixture was facilitated by the adding 60 μL ethanol. Animals (4/time point) were sacrificed at 2, 3, 5.5, and 24 hours and ^14C-radioactivity was measured in the blood, liver, spleen, kidney, lymph nodes and 24 hour feces and urine. […] Judging from the values in plasma, liver and lymph nodes, it appears that drug uptake is slower compared with soy oil or vitamin E and its presence in the tissues is more persistent.
Rats, in groups of three males, were orally administered 1.0 mL of 0.9% NaCl containing 10 or 32 mg BrEA micronized with a surfactant, Synperonic PE/F 127 (2.5% wt/wt). Rats were examined at 1.5, 5 and 24 hours after administration. Blood, liver, spleen, kidney, lymph nodes, and brain were assayed for ^14C radioactivity. The levels of BrEA in the blood, in comparison to the experiments with BrEA in Vitamin E oil and soya, were higher, 0.3% at 1.5 hours, and increased after 5 hours to 0.8% and 0.9% of the 10 and 32 mg dose, respectively. Additionally, the values in the lymph nodes were similar to those measured at 1.5 hours and the levels were sustained at 5 hours (5.3 and 5.0%) and 24 hours (3.7 and 3.1%) for the 10 and 32 mg dose, respectively (refer to Table 6).
In a repeated dose experiment, rats were intragastrically administered 1.0 mL 0.9% NaCl containing 2 mg BrEA micronized with Synperonic PE/F 127 (2.5% wt/wt) every 6 to 16 hours. Rats (3/time point) were sacrificed at 40, 72, 84, 90 and 96 hours after the first administration. Blood, liver, spleen, kidney and lymph nodes were assayed for ^14C radioactivity.
Rats, in groups of three males, were orally administered 1.0 mL of 0.9% NaCl containing 2, 4 or 10 mg BrEA micronized without a surfactant. Rats were sacrificed at 1.5, 5 and 24 hours after administration and blood, liver, spleen, kidney, lymph nodes and brain were assayed for ^14C radioactivity. The concentration of BrEA micronized without a surfactant in the observed tissues was lower than BrEA plus a surfactant.

[1] = micronized with surfactant, 10 mg dose, 5 hours
[2] = micronized with surfactant, 32 mg dose, 5 hours

SMILES: C[C@]12CC[C@H](O)C[C@@H]1CC[C@@H]1[C@@H]2CC[C@]2(C)C(=O)[C@H](Br)C[C@@H]12 [BrEA, 16α-bromo-3β-hydroxy-5α-androstane-17-one]
- levels of BrEA in the blood (BrEA micronized with Synperonic PE/F 127, 1.5 hours): 0.3%
- levels of BrEA in the blood [1]: 0.8%
- values in the lymph nodes [1]: 5.3%
- values in the lymph nodes (micronized with surfactant, 10 mg dose, 24 hours): 3.7%
- levels of BrEA in the blood [2]: 0.9%
- values in the lymph nodes [2]: 5.0%
- values in the lymph nodes (micronized with surfactant, 32 mg dose, 24 hours): 3.1%

— patent publication US20070275936A1, “Formulations and Treatment Methods” (priority 1998, published 2007)
